{"source": "paper PMC13086964", "about": "“USP7 deubiquitinase stabilizes FAN1 to support DNA crosslink repair and suppress CAG repeat expansion” (Nature Communications, 2026)", "type_in_all_cases": "cell-based, human", "key": {"[1]": {"system": "HeLa parental and FAN1 KO cells", "assay": "apoptosis: PARP-1 and caspase-3 cleavage, HeLa", "details": "48 h", "experimental": "(§1) Fig. 4 USP7 facilitates FAN1 localization and function during ICL repair. A QIBC analysis of chromatin-bound GFP-FAN1 foci in U2OS^eGFP-FAN1 cells transfected with either non-targeting (Ctrl), USP7 or FANCD2 siRNA oligos. 24 h later, cells were either mock-treated (–) or treated (+) with MMC (150 ng/ml) for 24 h. Color-coded scatterplots (from grey to green) indicate the number of GFP-FAN1 foci per nucleus from one biological replicate. Mean (solid line) and standard deviation (SD) from the mean (dashed lines) are indicated. Representative images are shown (bottom). Scale bar: 10 μm. This experiment was repeated three times. B QIBC analysis of endogenous FANCD2 foci in U2OS^eGFP-FAN1 cells transfected with either non-targeting (Ctrl) or the indicated siRNA oligos. 24 h later, cells were either mock-treated (−) or treated (+) with MMC (150 ng/ml) for 24 h. Color-coded scatterplots (from grey to blue) indicate the number of FANCD2 foci per nucleus from one biological replicate. Mean (solid line) and standard deviation (SD) from the mean (dashed lines) are indicated. […] 24 h later, cells were either mock-treated (−) or treated (+) with MMC (1 μg/ml) for 48 h and whole-cell lysates were analysed by immunoblotting. […] Relative FAN1, cleaved PARP-1 or cleaved Caspase-3 protein levels were determined by quantification of the respective band intensity (normalized to GAPDH) with the ImageJ software. […]"}, "[2]": {"system": "FAN1 protein level", "assay": "immunoblot of FAN1 levels after MMC, HeLa", "details": "MMC 1 μg/ml, 48 h", "experimental": "as §1"}, "[3]": {"system": "HeLa cells", "assay": "clonogenic survival assay, HeLa parental", "details": "MMC 10, 20, and 40 ng/ml, 24 h, n=4", "experimental": "HeLa and RPE-1 p53 KO cells were transfected with the indicated siRNA. The next day, the cells were seeded in six-well plates. The next day, the cells were treated with MMC for 24 h. Plates were then washed twice with 2 ml of PBS before adding fresh growth medium to the cells, that were then cultured for 13 days at 37 °C before fixation with crystal violet solution [0.5% crystal violet and 20% ethanol (w/v)]. For analysis, plates were scanned and analysed with the ImageJ Plugin ColonyArea using the parameter “intensity percent”. […]\nthe mean (dashed lines) are indicated. Representative images are shown (bottom). Scale bar: 10 μm. […]\nWestern blot analysis of HeLa cells depleted of the indicated factors. (E) Clonogenic survival assay of the HeLa cells depleted of the indicated factors (Ctrl: black circle; FANCD2: red square; USP7#1: inverted blue triangle; USP7#2: cyan triangle; RAD18: brown diamond) and exposed to increasing doses of MMC for 24 h. Viability of untreated cells was defined as 100%. Data are presented as the means ± SD of four biological replicates (n=4). Representative images are shown (left). (F) Western blot analysis of HeLa and HeLa FAN1 KO cells depleted of the indicated factors. […]"}}}
{"smiles": "CO[C@@]12[C@H](COC(N)=O)C3=C(C(=O)C(C)=C(N)C3=O)N1C[C@@H]1N[C@@H]12", "note": "[MMC, Mitomycin C]", "values": [{"measurement": "apoptosis (cleavage of PARP-1 and caspase-3)", "setting": "[1]; HeLa FAN1 KO cells depleted of USP7, MMC 1 µg/ml", "value": "further amplified"}, {"measurement": "apoptosis (cleavage of PARP-1 and caspase-3)", "setting": "[1]; HeLa, USP7 depletion or FAN1 loss, MMC 1 µg/ml", "value": "increased apoptosis"}, {"measurement": "FAN1 levels in response to MMC", "setting": "[2]", "value": "upregulated"}, {"measurement": "MMC-induced FAN1 upregulation with USP7 depletion", "setting": "[2]; USP7 siRNA", "value": "abrogated by USP7 depletion"}, {"measurement": "MMC sensitivity, RAD18 or FANCD2 depletion", "setting": "[3]", "value": "more pronounced effects"}, {"measurement": "MMC sensitivity, USP7 depletion", "setting": "[3]; two independent USP7 siRNA", "value": "only a modest increase MMC sensitivity"}]}
